Measured values: patent US11117918B2, “Enzyme-directed immunostimulant and uses thereof” (Washington State University, priority 2016, dated 2021)

What was measured:
β-galactosidase = β-galactosidase (Escherichia coli, UniProt P00722); assay: Conversion of Imiquimod-β-galactopyranoside (6) to Imiquimod by exogenous β-galactosidase, LC-MS/MS; format: biochemical, E. coli
Protocol: (§1) For LC-MS/MS experiments, mobile phase A consisted of 0.05% formic acid and 0.2% acetic acid in water, and mobile phase B comprised 90% acetonitrile, 9.9% water, and 0.1% formic acid. Using a flow rate of 400 μL/min, mobile phase B 5% isocratic for 0.5 min, before gradient to 95% B over 2.2 min, followed by 95% isocratic for 0.1 min. The total chromatographic assay time (including time to equilibrate for the next run) was 4.0 min per sample. Optimized mass spectrometer parameters were as follows: collision gas, 20 psig; curtain gas, 20 psig; ion source gas 1, 60 psig; ion source gas 2, 40 psig; ion spray voltage, 5500 V; desolvation temperature, 600° C.; declustering potential, 70 V; entrance potential, 10 V; collision energy, 50 V; collision cell exit potential, 10 V. The substrate was detected using multiple reaction monitoring mode by monitoring the m/z fragmentation from 597.8 to 241.2 Da for (6) and the Imiquimod product was monitored for 241.2 to 185.1 Da fragmentation.
To confirm the chemical identity of Imiquimod liberated by β-gal-mediated conversion of (6), an end-point assay was performed using 1 U of β-gal in 200 μL of 10 μm (6) incubated for 16 h (37° C., 5% CO2). To stop the reaction, 50 μL AO Quench Internal Standard (20 μg/mL 2-methyl-4(3H)-quinazolinone in 1 m formic acid) was added to the reaction. This aliquot was compared to a 200 μL sample of 10 μm (6) without β-gal enzyme.
To determine the conversion of Imiquimod-β-Galactopyranoside (6) to Imiquimod in the presence of β-gal over time for exogenous experiments, aliquots (200 μL) of (6) at a concentration of 5 μm in DPBS were incubated with β-gal (1 U, 37° C., 5% CO2). To stop the reaction at the specified time points (0, 1, 2 min), 50 μL AO Quench Internal Standard (20 μg/mL 2-methyl-4(3H)-quinazolinone in 1 m formic acid) was added to each individual reaction. Depletion of (6) was measured by LC-MS/MS for each time point. […] Similar to above, aliquots of (6) for various time points (0, 0.25, 0.5, 1, 2, 3 h) were tested for conversion to immunostimulant by exogenous β-galactosidase.
β-galactosidase from E. coli was diluted with sterile Dulbecco's Phosphate Buffer Saline (DPBS) to an initial concentration of 5,000 U/mL. Aliquots of this stock were diluted with additional DPBS to a concentration of 500 U/mL and 5 mU/mL. Because of the E. coli source for β-galactosidase, samples were filtered with a sterile 0.2 μm syringe filter to guard against potential residual bacteria. Absence of bacteria was confirmed prior to use; filtered samples were plated on an agar plate and incubated for 3 days (37° C., 5% CO2). No bacterial growth was observed from the filtered enzyme.

[1] = test system: β-galactosidase-enriched B16 melanoma cells; assay: Conversion of (6) to Imiquimod by β-galactosidase-enriched B16 cells, LC-MS/MS; format: cell-based, murine
Protocol: as §1
Murine melanoma cells (B16-F10, 5×10^6 cells) were removed from cell culture and pelletized via centrifuge (200 RCF, 0° C., 10 min). The supernatant was removed from the cell pellet, and cells were suspended in 1.5 mL of complete culture media (10% HI-FBS in DMEM) or preservative free FACS solution (10% HI-FBS in DPBS) that was pre-chilled on ice. Next, 15 μL of 0.5 mg/mL biotinylated α-gp-100 antibody (Abcam, UK) was added to the suspended cells, and the suspension was incubated on ice for 30 min with occasional shaking. Cells were then pelletized (200 RCF, 10 min, 0° C.) and washed 4 times each with 10 mL of chilled preservative free FACS solution (10% HI-FBS in DPBS). Washing Procedure: The cell pellet was suspended in 10 mL of FACS and centrifuged (200 RCF, 0° C., 10 min). Supernatant was removed from pellet, and the cells were suspended in subsequent chilled FACS solution for 1 min with constant shaking before this procedure was repeated. […] Enzyme enrichment (20-350 pU/cell) was quantified as average increase in enzymatic activity per cell determined by NPG colorimetric assay.

AT3B1 cells = assay: Conversion of pro-immunostimulant to Imiquimod by α-Mannosidase or AT3B-1 cells, LC-MS/MS; format: cell-based, rat; conditions: α-Mannosidase 0.1 U/mL or AT3B1 cells, 0-48 h
Protocol: To concretely determine the conversion of pro-immunostimulant (compound 6) to Imiquimod in the presence of α-Mannosidase over time for exogenous and endogenous experiments, 20 μL aliquots of 100 μM (pro-immunostimulant (compound 6)) in DMEM were incubated with 180 μL of either α-Mannosidase (0.1 U/mL, 37° C., 5% CO2), or AT3B1 cells (1×105, or 5×105, or 1×10^6 cells, 37° C., 5% CO2) without the addition of exogenous enzyme as shown by FIG. 6. To stop the reaction at the specified time points (0, 1, 2, 3, 6, 12, 24, and 48 h), 50 μL AO Quench Internal Standard (20 μg/mL, 2-methyl-4(3H)-quinazolinone in 1 M formic acid) was added to each individual reaction. Samples were then analyzed via LC-MS/MS.
The AT3B-1 cell line (ATCC CRL-2375, rat prostate epithelial malignant carcinoma) were grown in complete culture media composed of Roswell Park Memorial Institute (RPMI) 1640 medium with 4.5 g/L glucose, 2 mM L-glutamine, 10,000 U/mL penstrep, 10 mM HEPES and supplemented with 10% HI-FBS and 1 μM doxorubicin. Media was changed every 3-4 days omitting the doxorubicin, and cells were passaged once per week. Passaging involved changing media, counting, and seeding 3×10^5 cells in 35 mL of new complete media in a new T-175 culture flask.
α-Mannosidase from Canavalia ensiformis (Jack bean) was used directly from the bottle to make a 1 U/mL stock solution in DPBS. […]

Sequence of β-galactosidase (P00722 2-1024): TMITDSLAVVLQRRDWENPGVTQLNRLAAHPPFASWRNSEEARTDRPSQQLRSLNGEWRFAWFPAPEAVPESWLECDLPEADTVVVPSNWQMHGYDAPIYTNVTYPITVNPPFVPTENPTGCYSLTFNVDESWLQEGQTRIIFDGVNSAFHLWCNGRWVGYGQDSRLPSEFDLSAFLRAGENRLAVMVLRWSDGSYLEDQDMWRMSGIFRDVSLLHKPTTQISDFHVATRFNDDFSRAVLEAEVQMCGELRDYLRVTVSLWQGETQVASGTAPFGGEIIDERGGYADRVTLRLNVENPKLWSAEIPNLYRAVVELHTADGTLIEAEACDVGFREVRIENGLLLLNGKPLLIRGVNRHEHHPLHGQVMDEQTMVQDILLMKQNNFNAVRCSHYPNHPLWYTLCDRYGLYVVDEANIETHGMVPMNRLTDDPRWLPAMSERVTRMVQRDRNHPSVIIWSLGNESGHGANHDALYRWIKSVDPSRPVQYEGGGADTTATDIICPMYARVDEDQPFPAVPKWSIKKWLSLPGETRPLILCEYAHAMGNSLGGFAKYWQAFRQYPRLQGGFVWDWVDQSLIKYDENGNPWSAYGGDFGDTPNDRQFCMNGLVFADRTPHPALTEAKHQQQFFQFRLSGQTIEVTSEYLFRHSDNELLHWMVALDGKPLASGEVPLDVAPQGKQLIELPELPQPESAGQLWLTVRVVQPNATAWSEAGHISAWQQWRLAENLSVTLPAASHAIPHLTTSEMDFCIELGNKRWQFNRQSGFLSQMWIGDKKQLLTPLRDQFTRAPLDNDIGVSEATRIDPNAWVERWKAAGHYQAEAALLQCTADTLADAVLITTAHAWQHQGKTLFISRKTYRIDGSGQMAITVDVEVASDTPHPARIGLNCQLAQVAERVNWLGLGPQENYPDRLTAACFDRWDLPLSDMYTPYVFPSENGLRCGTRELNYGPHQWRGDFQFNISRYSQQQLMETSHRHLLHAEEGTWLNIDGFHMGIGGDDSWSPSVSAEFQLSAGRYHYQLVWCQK

4-Imiquimod-2-nitrophenyl-galactopyranoside [compound 6]
depletion of (6) (β-galactosidase; 5 μm in DPBS, β-gal 1 U, 0, 1, 2 min): rapid depletion | stability without β-gal enzyme (no residual Imiquimod observed) (β-galactosidase; 10 μm (6) without β-gal enzyme): stable | conversion to Imiquimod (depletion of (6) and formation of Imiquimod) (β-galactosidase; exogenous β-galactosidase 5 mU, over 3 h): near quantitative conversion | conversion into Imiquimod (β-galactosidase; β-galactosidase 1 U, 2 nmol (200 μL of 10 μm), 16 h, 37° C.): quantitative conversion | conversion of the compound ([1]; β-galactosidase-enriched B16 cells (5 mU), over 3 h): quantitative conversion | conversion to Imiquimod ([1]; β-galactosidase-enriched B16 cells, 1×10^5 cells/well, 35 mU/well, 24 h): near quantitative conversion | conversion into Imiquimod ([1]; β-galactosidase-enriched B16 cells, after 3 h): > 36% | conversion to Imiquimod and efflux (AT3B1 cells): still being converted in the presence of enzyme and effluxed
